Test results taken from US8476430B2, “Fused heterocyclic compounds useful as kinase modulators” (Bristol-Myers Squibb Company, priority 2008, dated 2013).

Columns and labels:
Ramos RA1 B cells = assay: Ramos FLIPR assay; type: cell-based; conditions: Homo sapiens, inhibition of peak intracellular calcium after F(ab')2 anti-IgM/IgG stimulation, read-out: Human Ramos Cell FLIPR (IC50 μM)
Description: Ramos RA1 B cells (ATCC® CRL-1596) at a density of 2×10^6 cells/ml in RPMI minus phenol red (Invitrogen 11835-030) and 50 mM HEPES (Invitrogen 15630-130) containing 0.1% BSA (Sigma A8577) were added to one half volume of calcium loading buffer (BD bulk kit for probenecid sensitive assays, #640177) and incubated at room temperature in the dark for 1 hour. Dye-loaded cells were pelleted (Beckmann GS-CKR, 1200 rpm, RT, 5 minutes) and resuspended in RT RPMI minus phenol red with 50 mM HEPES and 10% FBS to a density of 1×10^6 cells/ml. 150 μl aliquots (150,000/well) were plated into 96 well poly-D-lysine coated assay plates (BD 35 4640) and briefly centrifuged (Beckmann GS-CKR 800 rpm, 5 minutes, without brake). 50 μal compound dilutions in 0.4% DMSO/RPMI minus phenol red+50 mM HEPES+10% FBS were added to the wells and the plate was incubated at RT in the dark for 1 hour. Assay plate was briefly centrifuged as above prior to measuring calcium levels.
Using the FLIPR1 (Molecular devices), cells were stimulated by adding 50 μl 200 μg/ml F(ab′)2 anti-IgM/IgG (Jackson ImmunoResearch 109-006-127) diluted in 1×HBSS (Invitrogen 14025-076), 50 mM HEPES, 0.1% BSA. Changes in intracellular calcium concentrations were measured for 180 seconds and percent inhibition was determined relative to peak calcium levels seen in the presence of F(ab′)2 anti-IgM/IgG only.

human recombinant Btk = biological target: T1, human recombinant Btk (Homo sapiens, UniProt Q06187); assay: Human recombinant Btk enzyme assay; type: biochemical; conditions: human recombinant Btk 1 nM, ATP 20 μM, 60 min room temperature
T1 construct: purchased Invitrogen Corporation
Description: Human Recombinant Btk Enzyme Assay
To V-bottom 384-well plates were added test compounds, human recombinant Btk (1 nM, Invitrogen Corporation), fluoresceinated peptide (1.5 μM), ATP (20 μM), and assay buffer (20 mM HEPES pH 7.4, 10 mM MgCl2, 0.015% Brij35 and 4 mM DTT in 1.6% DMSO), with a final volume of 30 μL. After incubating at room temperature for 60 min, the reaction was terminated by adding 45 μl of 35 mM EDTA to each sample. The reaction mixture was analyzed on the Caliper LABCHIP® 3000 (Caliper, Hopkinton, Mass.) by electrophoretic separation of the fluorescent substrate and phosphorylated product. Inhibition data were calculated by comparison to no enzyme control reactions for 100% inhibition and no inhibitor controls for 0% inhibition. Dose response curves were generated to determine the concentration required inhibiting 50% of kinase activity (IC50). Compounds were dissolved at 10 mM in dimethylsulfoxide (DMSO) and evaluated at eleven concentrations.

T1 sequence (Q06187 whole entry): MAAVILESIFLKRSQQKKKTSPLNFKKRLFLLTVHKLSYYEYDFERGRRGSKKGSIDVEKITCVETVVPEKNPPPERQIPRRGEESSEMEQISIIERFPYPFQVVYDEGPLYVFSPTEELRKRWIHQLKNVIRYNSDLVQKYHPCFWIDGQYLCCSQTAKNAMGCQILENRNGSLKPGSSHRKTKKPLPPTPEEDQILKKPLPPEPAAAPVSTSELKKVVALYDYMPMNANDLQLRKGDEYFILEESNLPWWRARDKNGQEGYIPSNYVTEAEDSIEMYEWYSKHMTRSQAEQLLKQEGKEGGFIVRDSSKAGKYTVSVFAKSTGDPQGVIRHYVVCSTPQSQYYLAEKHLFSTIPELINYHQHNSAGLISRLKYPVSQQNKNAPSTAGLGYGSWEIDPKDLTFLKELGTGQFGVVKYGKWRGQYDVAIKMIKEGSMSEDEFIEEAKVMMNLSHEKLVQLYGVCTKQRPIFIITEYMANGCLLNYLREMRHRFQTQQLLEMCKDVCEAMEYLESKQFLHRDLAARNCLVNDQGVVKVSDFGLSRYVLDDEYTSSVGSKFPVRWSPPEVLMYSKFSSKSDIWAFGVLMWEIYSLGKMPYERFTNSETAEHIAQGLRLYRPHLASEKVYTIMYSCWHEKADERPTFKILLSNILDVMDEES

- IC50 (Ramos RA1 B cells): 0.028 µM
- IC50 (human recombinant Btk): 46 nM
Compound: Cc1c(NC(=O)c2ccc(C(C)(C)C)cc2)cccc1-c1nc(Nc2ccc(C(=O)N3CCOCC3)cc2)c2nccn2n1 [Example 1, 4-tert-Butyl-N-(2-methyl-3-(4-(4-(morpholine-4-carbonyl)phenylamino)imidazo[1,2-f][1,2,4]triazin-2-yl)phenyl)benzamide]
